From article PMC9260974 (BMC Pharmacology & Toxicology, 2022)
Values joined by “and” are separate entries in the source; they are usually repeats but may differ in a detail not shown here. Identical values can stand only once. Like-named read-outs stand apart in the source and are kept apart here.

How the values were obtained:
[1] = human, in vivo
Description: (§1) All eligible subjects were assigned according to the random table generated by SAS 9.4 and took the test (T) and reference(R) drugs respectively with 240 ml water after an overnight fast of at least 10 h (fasting study) or after the high-fat breakfast within half an hour before dosing (fed study). […] Subjects were forbidden to drink water within 1 h before and after taking the drug, and the lunch and dinner were provided at 4 h and 8 h respectively post-drug administration. No other food and beverage intake was permitted except the provided diets. […] 4 ml venous blood samples were collected before drug administration and at 1,2,3,4,5,6,7,8,9,10,11,12,13,24,36,48,72,96,144,168 h after administration. The samples were centrifuged at 1700gear per minute for 10 min at 4℃ to separate the plasma, which was divided into two aliquots (drug monitoring at least 800ul and backup) and stored at - 80℃until analysis.
(§2) The lower limit of quantification (LLOQ) was 0.500 ng/mL and the assay dynamic range was 0.500-100 ng/mL.
(§3) Under multiple reaction monitoring, LC–MS/MS system adopts positive ionization mode.
(§4) Data collection and analysis was performed with Analyst 1.6.3 software (Sciex, Canada) and Watson LIMS (Thermo, USA). Calibration curves were constructed using linear regression equation obtained by the weighted (W = 1/X2) least square method fitting for both analytes. Quantitation of quality control and clinical samples were also performed by the Analyst software using the same mathematical algorithm as that used in the calibration of standard curves.
(§5) For the purpose of bioequivalence analysis, the maximum observed concentration (Cmax), the area under the plasma concentration–time curve from time 0 to the last measured time point (AUC0-t), and the area under the plasma concentration–time curve from time 0 to infinity (AUC0-∞) were considered as primary PK parameters. The secondary PK parameters were the observed time to Cmax (Tmax) and the apparent terminal half-life (T1/2). Cmax and Tmax were the factually measured data and AUC0-t was calculated using the linear and logarithmic trapezoidal methods. AUC0-∞ was calculated according to the following formula: AUC0-∞ = AUC0-t + Clast/λz (Clast is the last measurable concentration and is the first order rate constant of terminal elimination determined from a linear regression line after logarithmic transformation at the end of concentration time curve. λz is the slope calculated by linear regression after logarithmic conversion at the end of the concentration–time curve). T1/2 was calculated to be ln2/λ.
(§6) Statistical analysis was performed by SAS 9.4. Demographic characteristics, safety parameters and pharmacokinetic data were summarized using descriptive statistics, the results were presented as the mean ± SD and the differences between groups were determined by two one-sided tests. […] AUC and Cmax were logarithmically transformed and analyzed by linear mixed effect model. Sequence, period and formulation were fixed effects, and subject within sequence was included as a random effect. Analysis of variance (ANOVA) of cross-over design was performed on the log-transformed variables. […] Bioequivalence was assessed separately in both the fasting and fed groups.

blood pressure = conditions: after oral administration; cited from earlier work
[2] = lisinopril; cited from earlier work
clinical = conditions: human, plasma, po
Description: as §1, §2, §3, §4, §5, §6

[3] = Single-dose two-period crossover bioequivalence study, fed (high-fat breakfast): plasma pharmacokinetics of lisinopril and amlodipine (LC-MS/MS, NCA); conditions: for concentration at 3 h / concentration at 10 h / concentration at 6 h / concentration at 5 h / concentration at 7 h / concentration at 8 h / concentration at 11 h / concentration at 12 h / concentration at 0 h / concentration at 1 h / concentration at 2 h / concentration at 4 h / concentration at 9 h / concentration at 13 h / concentration at 24 h / concentration at 36 h / concentration at 48 h / concentration at 72 h / concentration at 96 h / concentration at 144 h / concentration at 168 h: human, po, Plasma concentration of lisinopril; for concentration at 3 h: nominal time 3 h; for concentration at 3 h / concentration at 10 h / concentration at 6 h / concentration at 5 h / concentration at 7 h / concentration at 8 h / concentration at 11 h / concentration at 12 h / concentration at 0 h / concentration at 1 h / concentration at 2 h / concentration at 4 h / concentration at 9 h / concentration at 13 h / concentration at 24 h / concentration at 36 h / concentration at 48 h / concentration at 72 h / concentration at 96 h / concentration at 144 h / concentration at 168 h / Plasma concentration of lisinopril: reference (R) tablets; for concentration at 10 h: nominal time 10 h; for concentration at 6 h: nominal time 6 h; for concentration at 5 h: nominal time 5 h; for concentration at 7 h: nominal time 7 h; for concentration at 11 h: nominal time 11 h; for concentration at 12 h: nominal time 12 h; for concentration at 0 h: nominal time 0 h; for concentration at 2 h: nominal time 2 h; for concentration at 4 h: nominal time 4 h; for concentration at 9 h: nominal time 9 h; for concentration at 13 h: nominal time 13 h; for concentration at 24 h: nominal time 24 h; for concentration at 36 h: nominal time 36 h; for concentration at 48 h: nominal time 48 h; for concentration at 72 h: nominal time 72 h; for concentration at 96 h: nominal time 96 h; for Plasma concentration of lisinopril: oral, listed as LSN;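 on Plasma concentration of lisinopril: single tablet dose 10 mg/5 mg fixed combination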
Description: as §1, §2, §3, §4, §5, §6

[4] = plasma, Max, maximum among subjects
[5] = plasma, Mean, mean of 37 subjects
[6] = plasma, Min, minimum among subjects
[7] = lisinopril, intra-subject coefficient of variation

## NCCCC[C@H](N[C@@H](CCc1ccccc1)C(=O)O)C(=O)N1CCC[C@H]1C(=O)O [lisinopril]
[1]
  Intra-CV (%) of AUC0-t: 19.3%
  Intra-CV (%) of AUC0-∞: 17.0%
  Intra-CV (%) of Cmax: 24.3%
Blood pressure
  Time to appearance of antihypertensive effect: ≤ 1 h
  Time to peak antihypertensive effect: about 6 h
[2]
  Decrease of AUC0-24 by concomitant EGCG-concentrated green tea extract: 69%
  Decrease of AUC0-∞ by concomitant EGCG-concentrated green tea extract: 67%
  Decrease of Cmax by concomitant EGCG-concentrated green tea extract: 71%
  Mean fecal recovery of intact drug: 69%
clinical
  concentration at 0 h: 0.517 ng/mL
[3]; in vivo, Max, maximum among subjects
  concentration at 3 h: 22.4 ng/mL
[3]; in vivo, Mean, mean of 36 subjects
  concentration at 10 h: 12.9 ng/mL
[3]; in vivo, Mean, mean of 37 subjects
  concentration at 6 h: 13.3 ng/mL
[3]; in vivo, individual subjects
  concentration at 3 h: 22.4 ng/mL
  concentration at 5 h: 12.9 ng/mL
  concentration at 6 h: 22.4 ng/mL
  concentration at 7 h: 22.4 ng/mL
  concentration at 11 h: 12.9 ng/mL
  concentration at 12 h: 13.3 ng/mL
[3]; in vivo, individual subjects, nominal time 8 h
  concentration at 8 h: 22.4 ng/mL
[3]; [4]
  concentration at 0 h: 0.532 ng/mL
  concentration at 2 h: 12 ng/mL
  concentration at 4 h: 29.2 ng/mL
  concentration at 5 h: 29.7 ng/mL
  concentration at 6 h: 29.5 ng/mL
  concentration at 7 h: 29.8 ng/mL
  concentration at 9 h: 27.1 ng/mL
  concentration at 10 h: 24.1 ng/mL
  concentration at 11 h: 21.9 ng/mL
  concentration at 12 h: 20.8 ng/mL
  concentration at 13 h: 19 ng/mL
  concentration at 24 h: 8.44 ng/mL
  concentration at 36 h: 3.64 ng/mL
  concentration at 48 h: 3.23 ng/mL
  concentration at 72 h: 2.87 ng/mL
  concentration at 96 h: 2.72 ng/mL
[3]; plasma, Max, maximum among subjects, nominal time 1 h
  concentration at 1 h: 3.22 ng/mL
[3]; plasma, Max, maximum among subjects, nominal time 8 h
  concentration at 8 h: 27.4 ng/mL
[3]; plasma, Max, maximum among subjects, nominal time 144 h
  concentration at 144 h: 2.07 ng/mL
[3]; plasma, Max, maximum among subjects, nominal time 168 h
  concentration at 168 h: 1.66 ng/mL
[3]; [5]
  concentration at 0 h: 0.0284 ng/mL
  concentration at 2 h: 2.85 ng/mL
  concentration at 3 h: 5.92 ng/mL
  concentration at 4 h: 9.3 ng/mL
  concentration at 5 h: 11.9 ng/mL
  concentration at 7 h: 13.9 ng/mL
  concentration at 9 h: 13.5 ng/mL
  concentration at 11 h: 12 ng/mL
  concentration at 12 h: 10.8 ng/mL
  concentration at 13 h: 9.81 ng/mL
  concentration at 24 h: 4.32 ng/mL
  concentration at 36 h: 2.32 ng/mL
  concentration at 48 h: 1.88 ng/mL
  concentration at 72 h: 1.46 ng/mL
  concentration at 96 h: 1.21 ng/mL
[3]; plasma, Mean, mean of 37 subjects, nominal time 1 h
  concentration at 1 h: 0.795 ng/mL
[3]; plasma, Mean, mean of 37 subjects, nominal time 8 h
  concentration at 8 h: 14 ng/mL
[3]; plasma, Mean, mean of 37 subjects, nominal time 144 h
  concentration at 144 h: 0.741 ng/mL
[3]; plasma, Mean, mean of 37 subjects, nominal time 168 h
  concentration at 168 h: 0.639 ng/mL
[3]; [6]
  concentration at 0 h: 0 ng/mL
  concentration at 2 h: 0 ng/mL
  concentration at 3 h: 0.89 ng/mL
  concentration at 4 h: 1.37 ng/mL
  concentration at 5 h: 2.12 ng/mL
  concentration at 6 h: 3.02 ng/mL
  concentration at 7 h: 3.34 ng/mL
  concentration at 9 h: 4.2 ng/mL
  concentration at 10 h: 4.09 ng/mL
  concentration at 11 h: 3.97 ng/mL
  concentration at 12 h: 3.57 ng/mL
  concentration at 13 h: 3.73 ng/mL
  concentration at 24 h: 2.31 ng/mL
  concentration at 36 h: 1.27 ng/mL
  concentration at 48 h: 0.976 ng/mL
  concentration at 72 h: 0.736 ng/mL
  concentration at 96 h: 0.564 ng/mL
[3]; plasma, Min, minimum among subjects, nominal time 1 h
  concentration at 1 h: 0 ng/mL
[3]; plasma, Min, minimum among subjects, nominal time 8 h
  concentration at 8 h: 3.75 ng/mL
[3]; plasma, Min, minimum among subjects, nominal time 144 h
  concentration at 144 h: 0 ng/mL
[3]; plasma, Min, minimum among subjects, nominal time 168 h
  concentration at 168 h: 0 ng/mL
[3]; individual subjects, nominal time 1 h
  Plasma concentration of lisinopril: 0.899 ng/mL and 0.567 ng/mL and 0.719 ng/mL and 1.48 ng/mL and 3.22 ng/mL and 1.13 ng/mL and 0.941 ng/mL and 3.14 ng/mL and 0.842 ng/mL and 1.25 ng/mL and 0.826 ng/mL and 0.793 ng/mL and 1.55 ng/mL and 0.556 ng/mL and 0.744 ng/mL and 1.26 ng/mL and 1.43 ng/mL and 0.747 ng/mL and 1.81 ng/mL and 0.710 ng/mL and 0.799 ng/mL and 0.831 ng/mL and 2.32 ng/mL
[3]; individual subjects, nominal time 8 h
  Plasma concentration of lisinopril: 13.3 ng/mL
[3]; individual subjects, nominal time 144 h
  Plasma concentration of lisinopril: 1.05 ng/mL and 0.866 ng/mL and 2.07 ng/mL and 0.911 ng/mL and 0.569 ng/mL and 0.775 ng/mL and 0.691 ng/mL and 0.777 ng/mL and 0.834 ng/mL and 0.868 ng/mL and 0.514 ng/mL and 0.885 ng/mL and 0.919 ng/mL and 1.07 ng/mL and 1.00 ng/mL and 1.32 ng/mL and 0.715 ng/mL and 0.954 ng/mL and 1.83 ng/mL and 0.661 ng/mL and 0.869 ng/mL and 0.760 ng/mL and 0.582 ng/mL and 0.969 ng/mL and 0.992 ng/mL and 0.736 ng/mL and 0.576 ng/mL and 1.56 ng/mL and 1.10 ng/mL
[3]; individual subjects, nominal time 168 h
  Plasma concentration of lisinopril: 0.904 ng/mL and 0.689 ng/mL and 1.66 ng/mL and 0.780 ng/mL and 0.534 ng/mL and 0.708 ng/mL and 0.504 ng/mL and 0.629 ng/mL and 0.750 ng/mL and 0.711 ng/mL and 0.787 ng/mL and 0.832 ng/mL and 0.987 ng/mL and 0.890 ng/mL and 1.20 ng/mL and 0.696 ng/mL and 0.773 ng/mL and 0.528 ng/mL and 1.38 ng/mL and 0.522 ng/mL and 0.761 ng/mL and 0.659 ng/mL and 0.502 ng/mL and 0.849 ng/mL and 0.785 ng/mL and 0.620 ng/mL and 0.572 ng/mL and 1.04 ng/mL
[3]; [7]
  Intra-CV (%) of AUC0-t: 13.3%
  Intra-CV (%) of AUC0-∞: 12.9%
  Intra-CV (%) of Cmax: 22.4%
